Data reported in patent publication US20080249080A1, “Benzodiazepine Derivatives and Uses Thereof on Medical Field” (priority 2005, published 2008).

Legend:
[1] = test system: RET/V804L and RET/V804M mutants; conditions: cited from earlier work
[2] = test system: RET/E768D, RET/L790F, RET/Y791F, RET/A883F and RET/S891A mutants; conditions: cited from earlier work
[3] = test system: RET/C634R and RET/M918T mutants; conditions: cited from earlier work
[4] = test system: NPA papillary thyroid carcinoma cell line; assay: DNA fragmentation, NPA; type: cell-based, human; conditions: 10 μM, 24 and 48 hours
Procedure: (§1) The authors also have tested compounds according to the invention, in particular RS-678 and RS-779 compounds, also on OVCAR3 ovary carcinoma cell lines, ARO anaplastic thyroid and NPA papillary thyroid human carcinoma cell lines.
(§2) Subsequently, the same cell lines, except OVCAR3, were tested with fourteen new synthetic compounds at 10 μM concentration for 24 and 48 hours: eleven induced the expected cellular death.

K562 cell line [5] = assay: DNA fragmentation, K562 leukemic cell line; type: cell-based, human; conditions: 10 μM, 24 and 48 hours, FIGS. 18, 20, 21
Procedure: as §2

[6] = test system: ARO anaplastic thyroid carcinoma cell line; assay: DNA fragmentation, ARO; type: cell-based, human; conditions: 10 μM, 24 and 48 hours
Procedure: as §1, §2

K562 cell line [7] = assay: DNA fragmentation, K562 leukemic cell line; type: cell-based, human; conditions: 5, 10, 15 μM, 8, 16 and 24 hours, FIG. 1 A, B
[8] = test system: mixed lymphocytic cultures from marrow or peripheral blood of patients suffering from chronic myelogenous leukemia; assay: DNA fragmentation, mixed lymphocytic cultures of CML patients; type: cell-based, human; conditions: samples from patients (some Glivec resistant); 10 μM; 24, 48 and 72 hours; FIGS. 12-14
ARO cell line = assay: Percentage of dead cells, ARO; type: cell-based, human; conditions: after 24 hours
K562 cell line [9] = assay: Percentage of apoptosis, K562; type: cell-based, human; conditions: after 24 hours
NPA cell line = assay: Percentage of apoptosis, NPA; type: cell-based, human; conditions: after 24 hours
[10] = test system: tested cell lines (K562, ARO, NPA); assay: Relative cellular death in the tested cell lines; type: cell-based, human
Procedure: as §2

HL-60 and Jurkat cells = conditions: laboratory experiments; cited from earlier work

| Compound | DNA fragmentation [4] | DNA fragmentation (K562 cell line [5]) | DNA fragmentation [6] | other results |
| --- | --- | --- | --- | --- |
| Cc1ccc(-c2nn(C(C)(C)C)c3ncnc(N)c23)cc1 [PP1] |  |  |  | sensitivity to the action of inhibitors [1]: less sensitive; inhibition of in vivo self-phosphorylation [2]: inhibited effectively; block of the transforming activity [3]: able to block |
| COC(=O)CC1c2cccn2N(C)c2ccccc2N1C(=O)c1ccccc1 (stereo not drawn) [RS-337, methyl 10,11-dihydro-5-methyl-10-benzoyl-5H-pyrrolo[1,2-b][1,2,5]-benzotriazepine-11-acetate] | DNA fragmentation | DNA fragmentation | DNA fragmentation |  |
| COC(=O)CC1c2cccn2N(C)c2ccccc2N1C(=O)c1ccc(OC)cc1 (stereo not drawn) [RS-421, methyl 10,11-dihydro-5-methyl-10-(4-metoxybenzoyl)-5H-pyrrolo[1,2-b][1,2,5]-benzotriazepine-11-acetate] | DNA fragmentation | DNA fragmentation | DNA fragmentation |  |
| O=C(O)C1Nc2ccccc2S(=O)(=O)n2cccc21 (stereo not drawn) [RS-735, 10,11-dihydropyrrolo[1,2-b][1,2,5]benzothiadiazepine-11-carboxylic 5,5-dioxide acid] | not present | not present | not present | apoptosis / DNA fragmentation (K562 cell line [7]): not able to produce the DNA fragmentation |
| O=S1(=O)c2ccccc2NC(CO)c2cccn21 (stereo not drawn) [RS-750, 10,11-dihydropyrrolo [1,2-b][1,2,5]benzothiadiazepine-11-methanol 5,5-dioxide] | not present | not present | not present |  |
| CCOC(=O)CC1Nc2ccccc2S(=O)(=O)n2cccc21 (stereo not drawn) [RS-752, ethyl 10,11-dihydropyrrolo[1,2-b][1,2,5]benzothiadiazepine-11-acetate 5,5-dioxide] | DNA fragmentation | DNA fragmentation | DNA fragmentation | DNA fragmentation [8]: DNA fragmentation |
| O=C(O)CC1Nc2ccccc2S(=O)(=O)n2cccc21 (stereo not drawn) [RS-761, 10,11-dihydropyrrolo[1,2-b][1,2,5]benzothiadiazepine-11-acetic 5,5-dioxide acid] | not present | not present | not present |  |
| O=C(OC(c1ccc(Cl)cc1)C1Nc2ccccc2S(=O)(=O)n2cccc21)c1ccccc1 (stereo not drawn) [RS-786, 11-(4-Chlorophenybenzoyloxymethylene)10,11-dihydro pyrrolo[1,2-b][1,2,5]benzothiadiazepine 5,5-dioxide] | not present | not present | not present |  |
| CCOC(=O)C1c2cccn2S(=O)(=O)c2ccccc2N1C(=O)c1ccccc1 (stereo not drawn) [RS-2629, ethyl 10,11-dihydro-10-(benzoyl)pyrrolo[1,2-b][1,2,5]benzo-thiadiazepine-11-carboxylate 5,5-dioxide] | DNA fragmentation | DNA fragmentation | DNA fragmentation | percentage of dead cells (ARO cell line): approximately 60%; percentage of apoptosis (K562 cell line [9]): 85%; percentage of apoptosis (NPA cell line): 80%; cellular death relative to other compounds [10]: greater cellular death |
| CCOC(=O)C1c2cccn2S(=O)(=O)c2ccccc2N1C(=O)c1ccc(Cl)cc1 (stereo not drawn) [RS-2630, ethyl 10,11-dihydro-10-(4-chlorobenzoyl)pyrrolo[1,2-b][1,2,5]benzothiadiazepine-11-carboxylate 5,5-dioxide] | DNA fragmentation | DNA fragmentation | DNA fragmentation | percentage of dead cells (ARO cell line): approximately 60%; percentage of apoptosis (K562 cell line [9]): 85%; percentage of apoptosis (NPA cell line): 80%; cellular death relative to other compounds [10]: greater cellular death |
| CCOC(=O)C1c2cccn2S(=O)(=O)c2ccccc2N1C(=O)c1cccc2ccccc12 (stereo not drawn) [RS-2631, ethyl 10,11-dihydro-10-(1-naphtoyl)pyrrolo[1,2-b][1,2,5]benzo-thiadiazepine-11-carboxylate 5,5-dioxide] | DNA fragmentation | DNA fragmentation | DNA fragmentation |  |
| CCOC(=O)C1c2cccn2S(=O)(=O)c2ccccc2N1C(=O)c1ccc(F)cc1 (stereo not drawn) [RS-2632, ethyl 10,11-dihydro-10-(4-fluorobenzoyl)pyrrolo[1,2-b][1,2,5]benzothiadiazepine-11-carboxylate 5,5-dioxide] | DNA fragmentation | DNA fragmentation | DNA fragmentation |  |
| CCOC(=O)CC1c2cccn2S(=O)(=O)c2ccccc2N1C(=O)c1ccccc1 (stereo not drawn) [RS-2645, ethyl 10,11-dihydro-10-(benzoyl)pyrrolo[1,2-b][1,2,5]benzo-thiadiazepine-11-acetate 5,5-dioxide] | DNA fragmentation | DNA fragmentation | DNA fragmentation | cellular death relative to other compounds [10]: greater cellular death |
| CCOC(=O)CC1c2cccn2S(=O)(=O)c2ccccc2N1C(=O)c1ccc(F)cc1 (stereo not drawn) [RS-2652, ethyl 10,11-dihydro-10-(4-fluorobenzoyl)pyrrolo[1,2-b][1,2,5]benzothiadiazepine-11-acetate 5,5-dioxide] | DNA fragmentation | DNA fragmentation | DNA fragmentation |  |
| CCOC(=O)CC1c2cccn2S(=O)(=O)c2ccccc2N1C(=O)c1ccc(Cl)cc1 (stereo not drawn) [RS-2660, ethyl 10,11-dihydro-10-(4-chlorobenzoyl)pyrrolo[1,2-b][1,2,5]benzothiadiazepine-11-acetate 5,5-dioxide] | DNA fragmentation | DNA fragmentation | DNA fragmentation |  |
| CCOC(=O)CC1c2cccn2S(=O)(=O)c2ccccc2N1C(=O)c1cccc2ccccc12 (stereo not drawn) [RS-2661, ethyl 10,11-dihydro-10-(1-naphtoyl)pyrrolo[1,2-b][1,2,5]benzothiadiazepine-11-acetate 5,5-dioxide] | DNA fragmentation | DNA fragmentation | DNA fragmentation |  |
| CC[C@@]1(O)C(=O)OCc2c1cc1n(c2=O)Cc2cc3ccccc3nc2-1 [camptothecin] |  |  |  | induction of apoptosis (HL-60 and Jurkat cells): able to induce apoptosis |
| COc1cccc2c1C(=O)c1c(O)c3c(c(O)c1C2=O)C[C@@](O)(C(C)=O)C[C@@H]3O[C@H]1C[C@H](N)[C@H](O)[C@H](C)O1 [daunoribucin] |  |  |  | induction of apoptosis (HL-60 and Jurkat cells): able to induce apoptosis |
| COc1cccc2c1C(=O)c1c(O)c3c(c(O)c1C2=O)C[C@@](O)(C(=O)CO)C[C@@H]3O[C@H]1C[C@H](N)[C@H](O)[C@H](C)O1 [doxorubicin] |  |  |  | induction of apoptosis (HL-60 and Jurkat cells): able to induce apoptosis |
| COc1cc([C@@H]2c3cc4c(cc3[C@@H](O[C@@H]3O[C@@H]5CO[C@@H](C)O[C@H]5[C@H](O)[C@H]3O)[C@H]3COC(=O)[C@H]23)OCO4)cc(OC)c1O [etoposide] |  |  |  | induction of apoptosis (HL-60 and Jurkat cells): able to induce apoptosis |
